pKd: −log10 of the molar value. “And” between values parts separate entries of the source, which are not always exact repeats. Equal entries are not always repeated.
Assays:
KRAS^G12D-GDP [1] = target: T1, KRAS^G12D-GDP (Homo sapiens (Human), UniProt P01116, G12D); experiment: 19F T2-CPMG score, KRAS^G12D-GDP; type: binding
Protocol: (§1) Since the fragment library was curated using phosphate buffer, 25 mM sodium phosphate pH 7.4, 150 mM NaCl, 5 mM MgCl2, 1 mM TCEP-d16, 10% D2O Fresh TCEP was used for experiments. Screening was performed using ^1H-decoupled 1D ^19F experiment Bruker experiment (zgfhigqn.2) with 64 scans and a relaxation delay of 5 seconds. 50 μM HRas^G12V and 240 μM of each fragment in pools (mixtures) were used.
(§2) Hit confirmation was performed using the same ^19F experiment as the screen. Ligand-observed 1D ^1H, protein-observed 1D ^1H, ^1H T2-CPMG as well as Saturation Transfer Difference (STD) experiments were also run on the same samples. Ligand-observed 1D ^1H was run using the standard Bruker sequence with excitation sculpting (zgesgp) with a relaxation delay of 10 seconds and 16 scans per spectrum. Protein-observed 1D ^1H was performed using the same sequence with a relaxation delay of 1 second and 256 scans in order to increase the signal-to-noise of the protein resonances, while keeping the experimental time relatively short. The ^1H T2-CPMG experiment employed a modified version of the Bruker 1D ^1H zgesgp experiment with the addition of a CPMG pulse train after the first 90° excitation pulse. Total duration for each spin echo was fixed at 1 ms (τ=500 μs), while the number of echoes in the pulse train was varied according to the total time (T). The number of scans for each spectrum was 4 and eight delay times were run on each sample, ranging from 1 ms to 800 ms.
(§3) The activity of compounds of the invention regarding KRAS^G12D-GDP was measured in the same as in Example 80. The results obtained with the compounds in the various assays described above are depicted in Table 23.

KRAS^G12D-GDP [2] = target: T1, KRAS^G12D-GDP; experiment: 19F DLB score, KRAS^G12D-GDP; type: binding; set-up: scale not given here
Protocol: as §1, §2, §3

HRas^G12V [3] = target: T2, HRas^G12V (Homo sapiens (Human), UniProt P01112, G12V); experiment: Dissociation constant by NMR (1H/15N Fast-HSQC, 1H 1D protein-observed); type: binding; conditions: HRas^G12V; read-out: NMR Kd
Protocol: All NMR experiments were collected using 3 mm NMR tubes on a 600 MHz Bruker Avance III spectrometer equipped with a QCI helium cryoprobe and a SampleJet sample changer. The buffer used for NMR experiments was 25 mM sodium phosphate pH 7.4, 150 mM NaCl, 5 mM MgCl2, 1 mM TCEP-d16, 10% D2O. Data were processed using Bruker TopSpin.
(§4) ^1H/^15N Fast-HSQC experiments (Mori et al., Journal of Magnetic Resonance, Series B, Volume 108, Issue 1, July 1995, Pages 94-98) were recorded at a protein concentration of 50-100 μM.
(§5) Dissociation constants were obtained by monitoring changes in chemical shifts as a function of ligand concentration. The changes in chemical shifts (d) were calculated according to the following equation (Williamson, Progress in Nuclear Magnetic Resonance Spectroscopy, Volume 73, August 2013, Pages 1-16): d=√(1/2[δ_H^2+[…]]), Where δ are the changes in chemical shift in ppm for ^1H and ^15N and the correction factor (α) was set at 0.15.
(§6) ^1H 1D protein-observed experiments were recorded with 15-50 μM protein. The standard Bruker 1D ^1H sequence with excitation sculpting (zgesgp) was employed. A relaxation delay of 1 s was employed in order to use 256 scans while still keeping experimental time fairly short. Changes in protein chemical shift or peak intensity in the methyl region were monitored against compound concentration.

HRas^G12V [4] = target: T2, HRas^G12V; experiment: 19F DLB (ligand-observed 19F NMR) score; type: binding; set-up: scale not given here
Summary of the method: (§7)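 In the T2-CPMG experiment, echo spacing was 1 ms and total delays ranged over eight values from 1 to 800 ms. Both scores come from 600 MHz NMR of 50 μM HRas G12V mixed with fragment pools at 240 μM each, in phosphate buffer pH 7.4 with NaCl, MgCl2 and TCEP-d16. Ligand-observed 19F spectra were recorded with 1H decoupling, 64 scans and a 5 s relaxation delay.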

wild type HRAS = wild type HRAS (Homo sapiens (Human), UniProt P01112); experiment: NMR Kd, wild type HRAS; type: binding
Protocol: as §4, §5, §6
The activity of compounds of the invention regarding wild type HRAS was measured in the same as in Example 80. The results obtained with the compounds in the various assays described above are depicted in Table 2.

HRas^G12V [5] = target: T2, HRas^G12V; experiment: 19F T2-CPMG NMR score; type: binding
Summary of the method: as §7

HRas^G12V [6] = target: T2, HRas^G12V; experiment: Overall binding/activity in the various assays (NMR consensus binding)
Summary of the method: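 Fragments (240 µM each, pooled) screened against 50 µM HRas^G12V in 25 mM sodium phosphate pH 7.4, 150 mM NaCl, 5 mM MgCl2, 1 mM TCEP-d16 by 1H-decoupled 1D 19F NMR. Hits confirmed by ligand- and protein-observed 1D 1H, STD and T2-CPMG (aggregation check); consensus binding ranked, with 15N HSQC for sites and Kd.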

KRAS^G12D-GDP [7] = target: T1, KRAS^G12D-GDP; experiment: NMR Kd, KRAS^G12D-GDP; type: binding; conditions: 1H 1D protein-observed NMR, read-out: 1H 1D PO NMR Kd
Protocol: as §4, §5, §6, §3

KRAS^G12D-GDP [8] = target: T1, KRAS^G12D-GDP; experiment: Overall activity in the various assays, KRAS^G12D-GDP; type: binding
Protocol: as §3

CN(C)Cc1c[nH]c2cc(F)ccc12 [FS-1255, reference compound]
19F T2-CPMG Score (KRAS^G12D-GDP [1]): 3.62 | 19F DLB Score (KRAS^G12D-GDP [2]): 1.51 | pKd (HRas^G12V [3]): 1.92 to 2.01 | 19F DLB Score (HRas^G12V [4]): 1.77 and 1.7 and 1.65 | pKd (wild type HRAS): 2.22 | 19F T2-CPMG Score (HRas^G12V [5]): 5.22 | Binding to HRas^G12V (in words) (HRas^G12V [6]): weak binding affinity

CC(=O)N1CCN(C(=O)Cc2c[nH]c3cc(F)ccc23)CC1 [Compound 10040]
19F T2-CPMG Score (KRAS^G12D-GDP [1]): 7.49 | 19F DLB Score (KRAS^G12D-GDP [2]): 1.63 | pKd (KRAS^G12D-GDP [7]): 2.28 | Activity ranking on KRAS^G12D-GDP (in words) (KRAS^G12D-GDP [8]): most active | pKd (HRas^G12V [3]): 2.02 to 2.39 | 19F DLB Score (HRas^G12V [4]): 1.64 | 19F T2-CPMG Score (HRas^G12V [5]): 12.69 | Activity ranking on HRas^G12V (in words) (HRas^G12V [6]): More active

From patent US20240408064A1, “RAS INHIBITORS, COMPOSITIONS AND METHODS OF USE THEREOF” (GENETOLEAD INC., priority 2021, published 2024)
